# Assays:
# [1] = tested on: de-epithelialized rabbit cornea; assay: Overall accumulation of photosensitizer by the rabbit cornea (optical absorption at 755 nm); assay type: in vitro ADME; conditions: exposure to saline solution for 10, 20 and 30 min; increased with time
# Protocol: Eyes of rabbits were de-epithelialised mechanically immediately post mortem. For most studies, 6 rabbits were used, wherein 6 eyes of 6 rabbits were exposed to the bacteriochlorophyll test compound for 10, 20 and 30 minutes (2 eyes for each test) using an eye cap, while the contralateral eyes were left untreated and served as controls. The corneas were removed and the central buttons of 8-mm diameter were punched out with a round trephine and placed onto the outer side of a polymethylmethacrylate cuvette in the area of light beam passage. Absorption spectra were recorded, and optical density (OD) at 600-900 nm (in most cases at 755 nm) was measured using V-570 spectrophotometer (Jam), Japan).
# Six eyes of 3 euthanized rabbits were de-epithelialized mechanically immediately post mortem. Five of these eyes were exposed to WST11 in saline (WST11-S solution) for 10, 20 and 30 min, using an eye cap, and the optical absorption at 755 nm of the washed corneas was determined as described in Materials and Methods. One eye served as untreated control.
# rabbit cornea = assay: Clinical course after in vivo cornea treatment (edema, epithelial healing, haze); conditions: for epithelial haze / time to healing of corneal epithelial defect: dipotassium salt
# Protocol: Twelve to twenty five weeks old rabbits (2.5-3 Kg weight) were used. They were anesthetized by intramuscular (i.m.) injection of 35 mg/kg ketamine (Rhone Merieux, Lyon, France) and 5 mg/kg xylazine (Vitamed, Binyamina, Israel). Usually, 16 rabbits were assigned for bacteriochlorophyll treatment. After de-epithelialization, one eye of each rabbit was treated topically with a test compound in saline for 10, 20 and 30 minutes using an eye cap (12 mm in diameter), followed by NIR illumination for 10, 20 or 30 minutes (755 nm, 10 mW/cm^2). The other eye served as untreated control. To prevent exposure of the limbal stem cells, the illuminated area was restricted by an aluminum foil mask with an 8 mm diameter central opening. To determine the role of dextran, 12 rabbits were divided into 4 treatment groups of 3 rabbits each: group 1, the Bchl-S group, was treated with a saline solution of a bacteriochlorophyll derivative; group 2, the Bchl-D group, treated with a bacteriochlorophyll-dextran solution. Both groups were incubated with the test compound for 20-min, followed by NIR illumination (755 nm, 10 mW/cm^2) for 30 minutes. Group 3, the RF group, was treated with riboflavin without dextran, and group 4, the RF-D group was treated with RF-dextran solution (RF-D). Both groups were incubated with RF or RF-D solutions for 30-minute, followed by UVA illumination (370 nm, 3 mW/cm^2) for 30 minutes. An ophthalmic ointment containing dexamethasone 0.1%, neomycin and polymixin B (Maxitrol®, Alcon, Belgium) was applied on the treated eyes once daily for two weeks. Four weeks after the treatment the rabbits were sacrificed, and the corneoscleral rings were removed and placed on paraffin hemisphere buttons of matching shape to assure accurate sectioning without stretching the tissue. Corneal strips, 4±0.2 mm in width, were cut from the epithelial side, as described above in the ex-vivo section. The corneal strips were transferred to the biomechanical tester without delay.
# To determine the role of dextran, the photochemical treatment with a formulation of WST11 2.5 mg/ml containing 20% dextran T-500 (WST11-D) was examined. Six rabbits were examined: 3 rabbits were pretreated for 20 min with WST11-S solution and 3 with WST11-D solution, followed by NIR illumination for 30 minutes. Additional 4 rabbits were treated with RF (n=2) or RF-D (n=2) for 30 minutes, followed by 30-min UVA irradiation (370 nm, 3 mW/cm^2).
# [2] = tested on: rabbit cornea (keratocytes, endothelium), retina; assay: Histology and endothelial staining after in vivo treatment; conditions: two days after treatment
# Protocol: Forty eight hours or 1 week after treatment with Bchl-S, Bchl-D, RF or RF-D, rabbits were euthanized, and the eyes were immediately enucleated and fixated in Davidson's fixative (48 hour post treatment) or in 4% formaldehyde (1 week post treatment). […] sections were prepared from either the whole eye or corneas and stained with hematoxylin-eosin (H&E). The pathology of the corneal and retinal sections was examined. The sections were photographed with a digital video camera (Nikon DS-Ril, Japan), mounted on a light microscope (E-800 Leica, Germany). Keratocyte and endothelial cell densities were counted in 2 areas of 2 central histological sections and calculated, using Image-Pro software (MediaCybernetics, MD, USA). Rabbits underwent analysis of corneal endothelial damage 1 day post treatment, using alizarine red S and trypan blue staining as described in Spence and […], 1976. The treatment included either a 20-minute pretreatment with Bchl-S or Bchl-D solutions, followed by 30-minute irradiation at 755 nm (2 rabbits), or only a 30-minute irradiation at 760 nm (2 rabbits). Contralateral non-treated eyes served as controls. One rabbit underwent treatment with WST11 in saline (WST11-S; 20-minute incubation, 30-minute irradiation at 755 nm). Six rabbits underwent treatment with WS[…] (n=4, 20-minute incubation, 30-minute irradiation at 755 nm), or with RF-D (n=2, 30-minute incubation, 30-minute irradiation at 370 nm) as described above (In-vivo studies section). Contralateral eyes were used as control.
# rabbit sclera = assay: Biomechanical testing of rabbit sclera treated ex vivo, external NIR illumination; conditions: 2.5 mg/ml 30 min, external NIR 30 min
# Protocol: The opposite side of the sclera served as control. Scleral strips, 4 mm in width, were cut at the equatorial treated area and the opposite sclera, and stress-strain measurements were performed using a biomaterial tester.
# The corneal and scleral strips were clamped horizontally, at a distance of 6 mm, between the jaws of a microcomputer-controlled biomaterial tester (Minimat, Germany) with a 200 Newton force cell (FIG. 1). Controlled tightening of screws was performed with a calibrated screwdriver at a preset torque of 9 cN.m (Torqueleader, England). The strain was increased linearly at a rate of 1.0 mm/min and was measured up to tissue rupture. Young's modulus was calculated by the testing machine. Ultimate stress and Young's modulus were expressed in Mega Pascal (MPa) units.
# Stress-strain tests of sclera of enucleated rabbits' eyes were performed following treatment with WST11 (2.5 mg/ml) as described in Materials and Methods. After photosensitizer impregnation, the sclera was illuminated by applying the laser beam directly onto the treated area (external illumination), using a flat optical fiber that run along a curved plastic or metal glide as shown in FIG. 17A. Strips of the sclera were cut and tested.
# [3] = in vivo after photosensitizer + illumination
# [4] = in vivo after photosensitizer + illumination, listed as WST11-S
compound,measurement,setting,value
"CCC1C2=Cc3c(C)c(C(=O)NCCS(=O)(=O)[O-])c4[n]3[Pd][n]3c(c(C)c(C(C)=O)c3=CC(=N2)C1C)=CC1=NC(=C4CC(=O)OC)C(CCC(=O)[O-])C1C.[K+].[K+] (centres unmarked) [WST11, Palladium 3^1-oxo-15-methoxycarbonylmethyl-rhodobacteriochlorin 13^1-(2-sulfoethyl)amide dipotassium salt]",optical density of the impregnated corneas at 755 nm,[1],≤ 1.71 OD units
same,time to clearing of corneal edema,rabbit cornea; [3],5 days
same,epithelial haze,rabbit cornea; [3],without haze development
same,time to healing of corneal epithelial defect,rabbit cornea; [3],7 to 9 days
same,epithelial haze,rabbit cornea; [4],some corneas demonstrating epithelial haze
same,time to healing of corneal epithelial defect,rabbit cornea; [4],10 to 14 days
same,"corneal edema after treatment, duration","rabbit cornea; in vivo, saline solution/NIR",one week
same,corneal edema (histology),[2],marked edema
same,keratocytes in stroma (histology),[2],reduced number of keratocytes throughout the stroma
same,endothelial cell layer / damage to the endothelium,"[2]; H&E and vital staining, listed as WST11-S, dipotassium salt",appeared intact
same,cornea swelling (thickness),[2]; histology,890 μm
same,"endothelial counts, treatment vs control",[2]; P=0.47,no statistical difference
same,mean maximal stress,rabbit sclera; control 2.77±0.99,7.6±0.99 MPa
same,mean Young's modulus,rabbit sclera; control 15.2±7.5,45.6±3.9 MPa

# — US11058772B2, “(Bacterio)chlorophyll photosensitizers for treatment of eye diseases and disorders” (Yeda Research and Development Co. Ltd., priority 2011, dated 2021)
